Data reported in patent publication US5945407A, “Methods and compositions using butyrate esters of threitol” (Vertex Pharmaceuticals, Incorporated, priority 1998, dated 1999).
Each block holds one compound with its values, some of them ahead of it.

How the values were obtained:
[1] = Oral bioavailability and sustenance of plasma concentrations of butyric acid in rats after oral gavage; type: in vivo, rats (Sprague Dawley); conditions: rat; for AUC: butyric acid in plasma, oral gavage, mean ± SD
Procedure: We evaluated oral bioavailability and sustenance of plasma concentrations of butyric acid in rats receiving tetrabutyrate esters of threitol and tributyrin by oral gavage.
This assay was carried out according to the protocol described in Daniel et al., Clinca Chimica Acta., 181, pp. 255-64 (1989); Planchon et al., J. Pharm. Sci., 82, pp. 1046-48 (1993); Pouillart et al., J. Pharm Sci., 81, pp. 241-44 (1992). Each compound was tested in five to six rats (Sprague Dawley; Harlan Labs, Inc.) weighing approximately 300 grams each. In that table, data are expressed as mean ± standard deviation (range) and were compared using the unpaired Student's t-test.

[2] = tested on: tumor and leukemia in mice; conditions: cited from earlier work
[3] = Pharmacokinetic variability of serum butyrate (standard deviation of a parameter such as Cmax or AUC divided by its mean); type: in vivo
Source text: Pharmacokinetic variability is the measure of differences in the serum butyrate concentrations between different patients administered the same amount of butyrate esters of threitol. Pharmacokinetic variability is quantified by dividing the standard deviation for a given parameter, such as Cmax or AUC, by the mean value of that parameter, in a series of patients given dose the same dosage of butyrate ester of threitol.

[4] = leukemia patients; continuous infusions of sodium butyrate; cited from earlier work
[5] = tested on: Cultured Erythroleukemic Cells; conditions: in vitro; cited from earlier work
leukemia patients = conditions: by inducing cell differentiation; cited from earlier work
in vitro = conditions: cell culture
fetal hemoglobin = conditions: sickle cell anemia patients; cited from earlier work

AUC ([1]; 2.4 gm/kg): 1200 ± 400 µM·h
SMILES: CCCC(=O)OC[C@H](OC(=O)CCC)[C@H](COC(=O)CCC)OC(=O)CCC [l-threitol tetrabutyrate ester]

AUC ([1]; 2.8 gm/kg): 900 ± 260 µM·h
SMILES: CCCC(=O)OC[C@@H](OC(=O)CCC)[C@@H](COC(=O)CCC)OC(=O)CCC [d-threitol tetrabutyrate ester]

SMILES: CCCC(=O)O [arginine butyrate]
anti-tumor and anti-leukemia effects [2]: anti-tumor and anti-leukemia effects

pharmacokinetic variability ([3]; in vivo): 35-40%
SMILES: CCCC(=O)OC[C@H](OC(=O)CCC)[C@@H](COC(=O)CCC)OC(=O)CCC [tetrabutyrate ester of mesothreitol]

SMILES: CCCC(=O)[O-].[Na+] [sodium butyrate]
plasma half-life of butyric acid [4]: 6 min

MCC (in vitro): > 3 mM
SMILES: CCCC(=O)O [butyric acid]
cell differentiation [5]: induces cell differentiation | effect in leukemia patients (leukemia patients): promising effects

SMILES: NC(=O)NO [hydroxyurea]
fetal hemoglobin production (fetal hemoglobin): stimulates fetal hemoglobin production | sickling crisis (fetal hemoglobin): reduces sickling crisis

AUC ([1]; 3.0 gm/kg): 1590 ± 930 µM·h | oral bioavailability (to provide therapeutic plasma levels of butyric acid) ([1]; oral): orally bioavailable | variability of release of butyric acid in vivo ([1]; oral, tetrabutyrate esters of threitol vs tributyrin): more variable | pharmacokinetic variability ([3]; standard deviation / mean of a parameter such as Cmax or AUC): 70%
SMILES: CCCC(=O)OCC(COC(=O)CCC)OC(=O)CCC [tributyrin]
